Laboratory results published in publication PMC3618516, “A Systematic Screen of FDA-Approved Drugs for Inhibitors of Biological Threat Agents” (PLoS ONE, 2013).
Where two headings read alike, the source gives them in different places.

Assays:
LASV = assay type: cell-based, Lassa virus
EBOV [1] = assay type: cell-based, Ebola virus
[2] = system: EBOV GP-pseudotyped vesicular stomatitis virus; test: microbe, parasite or virus in culture; assay type: cell-based, Ebola virus; conditions: Zaire ebolavirus; for EC50: read-out: EC50, EBOV Entry; for EC90: read-out: EC90, EBOV Entry
[3] = system: EBOV virus-like particles; assay type: cell-based, Ebola virus
[4] = system: MARV GP-pseudotyped vesicular stomatitis virus; test: microbe, parasite or virus in culture; assay type: cell-based, Marburg virus; conditions: Vesicular stomatitis virus; for EC50: read-out: EC50, MARV Entry; for EC90: read-out: EC90, MARV Entry
EBOV [5] = test: microbe, parasite or virus in culture; assay type: cell-based, Ebola virus; conditions: Zaire ebolavirus; for EC50: read-out: EC50, EBOV Replication; for EC90: read-out: EC90, EBOV Replication
MARV = test: organism not typed; assay type: cell-based, Marburg virus; conditions: for EC50: read-out: EC50, MARV Replication; for EC90: read-out: EC90, MARV Replication
[6] = system: LASV GP-pseudotyped vesicular stomatitis virus; test: microbe, parasite or virus in culture; assay type: cell-based, Lassa virus
[7] = mouse, in vivo
EBOV [8] = assay type: cell-based, Ebola virus; remark: listed apart in the source
in vivo = conditions: male, Balb/c, mouse, ip, 90 mg/kg
Bacillus anthracis [9] = system: Bacillus anthracis; design: species or system Balb/c mice; conditions: in vivo
Coxiella burnetii = test: microbe, parasite or virus in culture; assay type: cell-based; conditions: Vero, 168 h, read-out: Coxiella burnetii ICR (% protection)
Francisella tularensis [10] = assay type: cell-based; conditions: 50 µM
Francisella tularensis [11] = test: microbe, parasite or virus in culture; assay type: cell-based; conditions: J774.A1, 15 h, read-out: Fransciella tularensis ICR (% protection)
Bacillus anthracis [12] = assay type: cell-based; conditions: 50 µM
Bacillus anthracis [13] = test: microbe, parasite or virus in culture; assay type: cell-based; conditions: J774.A1, 15 h, read-out: Bacillus anthracis ICR (% protection)
[14] = cited from earlier work
[15] = HEK-293T, read-out: EBOV VPEN (% activity)
[16] = HEK-293T, read-out: MASV VPEN (% activity)
[17] = Vesicular stomatitis virus, HEK-293T, 50 µM, read-out: LASV VPEN (% activity)

CCN(CC)Cc1cc(Nc2ccnc3cc(Cl)ccc23)ccc1O [Amodiaquine]
LASV VR (LASV; 10 µM): − | EBOV VR (EBOV [1]; 10 µM): − | inhibition at 10 µM ([2]; HEK-293T, 10 µM, read-out: EBOV VPEN (% activity)): 99% | EC50 [2]: 2.6 µM | EC90 [2]: 8 µM | effect on number of VLPs bound per cell [3]: no significant difference in binding | inhibition at 10 µM ([4]; HEK-293T, 10 µM, read-out: MASV VPEN (% activity)): 97% | EC50 [4]: 2.3 µM | EC90 [4]: 6.5 µM | EC50 (EBOV [5]): 8.4 µM | EC90 (EBOV [5]): 17 µM | EC50 (MARV): 8.3 µM | EC90 (MARV): 16 µM | inhibition at 10 µM ([6]; Vesicular stomatitis virus, HEK-293T, 10 µM, read-out: LASV VPEN (% activity)): 51%

CCN(CC)CCCC(C)Nc1ccnc2cc(Cl)ccc12 (stereo not drawn) [Chloroquine]
LASV VR (LASV; 50 µM): − | EBOV VR (EBOV [1]; 50 µM): + | Apparent Css ([7]; male, Balb/c): ~ 2.5 μg/ml | apparent steady state concentration ([7]; male, Balb/c): 2,500 ng/mL | time to apparent steady state after initiating treatment ([7]; male, Balb/c): 35 to 40 h | survival of mice on repeat dosing (tolerability) [7]: all mice survived | co-localization of virus particles with EEA1 / LAMP1 (EBOV [8]): most particles were now associated with EEA1 and very few particles were co-localized with LAMP1 | inhibition at 50 µM [2, 15]: 97% | EC50 [2]: 4.7 µM | EC90 [2]: 43 µM | effect on number of VLPs bound per cell [3]: no significant difference in binding | inhibition at 50 µM [4, 16]: 97% | EC50 [4]: 5.5 µM | EC90 [4]: 24 µM | EC50 (EBOV [5]): 16 µM | EC90 (EBOV [5]): 25 µM | EC50 (MARV): 15 µM | EC90 (MARV): 21 µM | AUC (in vivo): 23000 ng·h/mL | Tmax (in vivo): 0.5 h | half-life (in vivo): ~7 h | Cmax (in vivo; Cmax): 5330 ng/mL | inhibition at 50 µM [6, 17]: 34%

CC[C@H]1OC(=O)[C@H](C)[C@@H](O[C@H]2C[C@@](C)(OC)[C@@H](O)[C@H](C)O2)[C@H](C)[C@@H](O[C@@H]2O[C@H](C)C[C@H](N(C)C)[C@H]2O)[C@](C)(O)C[C@@H](C)[C@@H]2N[C@@H](COCCOC)O[C@H]([C@H]2C)[C@]1(C)O [Dirithromycin]
LASV VR (LASV; 50 µM): − | protection of mice against BA infection (% of the mice) (Bacillus anthracis [9]; mouse): 20% | EBOV VR (EBOV [1]; 50 µM): − | inhibition of growth at 50 µM (Coxiella burnetii): 0% | Fransciella tularensis Broth (% protection) (Francisella tularensis [10]): + | inhibition at 50 µM (Francisella tularensis [11]): 88% | Bacillus anthracis Broth (% protection) (Bacillus anthracis [12]): + | inhibition at 50 µM [2, 15]: 99% | inhibition at 50 µM (Bacillus anthracis [13]): 92% | inhibition at 50 µM [4, 16]: 91% | LASV VPEN (% activity) ([6]; 50 µM): no activity | inhibition at 50 µM [6, 17]: -11%

CCn1cc(C(=O)O)c(=O)c2cc(F)c(N3CCNC(C)C3)c(F)c21 (stereo not drawn) [Lomefloxacin]
efficacy in preventing mouse death following BA infection (rank) (Bacillus anthracis [9]): most efficacious drug | maximum concentration (Cmax) ([14]; following a 400 mg dose in humans): 2000 to 4000 ng/mL | bioavailability ([14]; humans): 95–98% | inhibition of growth at 50 µM (Coxiella burnetii): 100% | Fransciella tularensis Broth (% protection) (Francisella tularensis [10]): + | inhibition at 50 µM (Francisella tularensis [11]): 98% | Bacillus anthracis Broth (% protection) (Bacillus anthracis [12]): + | inhibition at 50 µM (Bacillus anthracis [13]): 95%
